Results from article PMC8238520, “Co-ordinated control of the Aurora B abscission checkpoint by PKCε complex assembly, midbody recruitment and retention” (Biochemical Journal, 2021).

What was measured:
Type in all cases: cell-based
[1] = test system: GFP-PKCε M486A in HEK293T cells; assay: Fluorescence recovery after photobleaching (FRAP); details: NaPP1 (4 μM) for 10 min; 37°C
Experimental: Live-cell fluorescence recovery after photobleaching (FRAP) experiments were performed using an inverted laser scanning confocal microscope (LSM 510, Carl Zeiss MicroImaging GmbH, Jena, Germany), with fully open pinhole, using a Plan-Apochromat oil-immersion objective (×63, NA 1.4). The microscope was encased inside an environmental polymethylmethacrylate case maintained at a constant temperature of 37°C, while the dishes containing the cells were maintained under a constant 5% CO2 flow. GFP-PKCε M486A cells were incubated with NaPP1 (4 μM) for 10 min. Each FRAP experiment comprised a sequence of 300 frames (128 × 128, pixel dwell time of 6.40 μs, pixel size 0.37 μm) including 10 pre-bleached frames. […] Recovery was monitored by capturing a further 290 scans after the photobleach event. Quantification was performed using the FRAP module included in the LSM software (Carl Zeiss) plotting the graphs to a best fit double exponential model I = I0 − I1e^−t/T^1 − I2e^−t/T^2 where I0 is the intensity before bleach, I1 and I2 are the mobile fractions and T1 and T2 the time constants. […]
(§1) I = I0 –I 1e-t/T1 –I 2e-t/T2 (see Methods), for GFP-PKC e M486A expressing HEK293T cells pretreated with NaPP1. Cells were bleached atthe plasma membrane (PM) or midbody(MB)and fluorescence recovery was monitored. […]

[2] = test system: GFP-PKCε-ΔC2 in HEK293T cells; assay: Midbody recruitment of GFP-PKCε-ΔC2, immunofluorescence
Experimental: (§2) Cells were grown on 13 mm glass coverslips and simultaneously fixed and permeabilized with PHEM-TX buffer (60 mM PIPES (pH 6.8), 25 mM HEPES (pH7.4), 10 mM EGTA (pH 8), 4 mM MgSO4, 4% paraformaldehyde and 0.1% Triton X-100) for 20 min. Cells were then incubated in blocking buffer (3% BSA in PBS) and probed using the following primary antibodies: rabbit Aurora B pS227 (in house, 1 : 100), mouse α-tubulin (in house, 1 : 1000). Primary antibodies were detected using Alexa Fluor-conjugated secondary antibodies (Life Technologies) and were all used diluted in blocking buffer: donkey anti-rabbit Alexa Fluor 647 and goat anti-mouse Alexa Fluor 555. All coverslips were mounted using ProLong Gold Diamond with DAPI (Invitrogen). All the static images were acquired using an inverted laser scanning confocal microscope (Carl Zeiss LSM 780) equipped with a 40× Plan-APOCHROMAT DIC oil-immersion objective. Image analysis was carried out using the ZEN analysis software. The variation in expression precluded midbody/cytoplasmic ratio determination as a valid approach to scoring localisation. […]
as §1

[3] = test system: GFP-PKCε (WT) in HEK293T cells; assay: Midbody recruitment of GFP-PKCε (WT), immunofluorescence; details: cells undergoing cytokinesis, twenty cells with midbodies per condition across three experiments
Experimental: (§3) Cells were grown on 13 mm glass coverslips and simultaneously fixed and permeabilized with PHEM-TX buffer (60 mM PIPES (pH 6.8), 25 mM HEPES (pH7.4), 10 mM EGTA (pH 8), 4 mM MgSO4, 4% paraformaldehyde and 0.1% Triton X-100) for 20 min. Cells were then incubated in blocking buffer (3% BSA in PBS) and probed using the following primary antibodies: rabbit Aurora B pS227 (in house, 1 : 100), mouse α-tubulin (in house, 1 : 1000). Primary antibodies were detected using Alexa Fluor-conjugated secondary antibodies (Life Technologies) and were all used diluted in blocking buffer: donkey anti-rabbit Alexa Fluor 647 and goat anti-mouse Alexa Fluor 555. […]
(§4) Figure 2. […] (B) Quantitation of dividing cells with GFP-PKCε and GFP-PKCε-D532N accumulation at the midbody. […] (D) Quantitation of dividing cells with GFP-PKCε, GFP-PKCε-S346A-S368A, GFP-PKCε-D532N or GFP-PKCε-D532N-S346A-S368A accumulation at the midbody. […] (F) Quantitation of dividing cells with GFP-PKCε-D532N, GFP-PKCε-D532N-C183A, GFP-PKCε-D532N-C259A or GFP-PKCε-D532N-ΔC2 accumulation at the midbody. […] (G) Quantitation of multinucleate cells upon treatment with non-targeting siRNA (control) or PKCε siRNA, with expression of siRNA-resistant mouse GFP-PKCε, GFP-PKCε-D532N, GFP-PKCε-C183A, GFP-PKCε-C259A or GFP-PKCε-ΔC2. […] Two-hundred cells were counted per condition per experiment. […]

[4] = test system: GFP-PKCε-L223A-K224A-E227A in HEK293T cells; assay: Midbody recruitment of GFP-PKCε-L223A-K224A-E227A (LKE > 3A), immunofluorescence; details: twenty cells with midbodies per condition across three experiments
Experimental: as §2
Figure 3. […] (C) Quantitation of dividing cells with GFP-PKCε, GFP-PKCε-D532N, GFP-PKCε-D532N-L223A-K224A-E227A, GFP-PKCε-D532N-T228A or GFP-PKCε-D532N-S234A accumulation at the midbody. […]

[5] = test system: GFP-PKCε-C259A in HEK293T cells; assay: Midbody recruitment of GFP-PKCε-C259A (C1B mutant), immunofluorescence; details: twenty cells with midbodies per condition across three experiments
Experimental: as §3, §4

[6] = test system: GFP-PKCε-C183A in HEK293T cells; assay: Midbody recruitment of GFP-PKCε-C183A (C1A mutant), immunofluorescence; details: twenty cells with midbodies per condition across three experiments
Experimental: as §3, §4

## CC(C)(C)n1nc(-c2cccc3ccccc23)c2c(N)ncnc21 [NaPP1]
[1]
  fast component of FRAP recovery at the midbody compared with the plasma membrane recruited protein: considerably slower

## CCCCCCCCCC(=O)OC[C@H](CO)OC(=O)CCCCCCCCC [DiC10, sn-1,2-didecanoylglycerol]
[2]; DiC10, data not shown
  midbody recruitment of PKCεΔC2 on diC10: recruited
[3]; 10 µM diC10, 3 min
  midbody recruitment of WT PKCε on diC10: recruited to the midbody region
[4]; 10 µM diC10, 3 min
  midbody recruitment of LKE > 3A mutant on diC10: recruited to the midbody
[5]; 10 µM diC10, 3 min
  cells displaying recruitment of C1B mutant to midbody on diC10: 0%
[6]; 10 µM diC10, 3 min
  cells displaying recruitment of C1A mutant to midbody on diC10: 0%

## CCCCCCCCCCCCCC(=O)O[C@@H]1[C@@H](C)[C@@]2(O)[C@@H](C=C(CO)C[C@]3(O)C(=O)C(C)=C[C@@H]23)[C@@H]2C(C)(C)[C@]12OC(C)=O [PMA, phorbol myristate acetate]
[2]; PMA for 20 minutes, 20 cells per condition across 3 experiments
  midbody recruitment of PKCεΔC2 on PMA: recruited
[3]; 1 µM PMA, 20 min
  midbody recruitment of WT PKCε on PMA: recruited to the midbody region
[4]; 1 µM PMA, 20 min
  midbody recruitment of LKE > 3A mutant on PMA: recruited to the midbody
[5]; 1 µM PMA, 20 min
  midbody recruitment of C1B mutant (C259A) on PMA: not recruited
[6]; 1 µM PMA, 20 min
  midbody accumulation of C1A mutant (C183A) on PMA: still promoted midbody accumulation
